# In patent publication US5646136A, “Methods of inhibiting angiogenesis and tumor growth, and treating ophthalmologic conditions with angiostatic and therapeutic steroids” (Duke University, priority 1994, dated 1997):
# Key:
# [1] = system: glucocorticoid activity; test: Glucocorticoid activity (general statements)
# [2] = system: human pancreatic cancers; test: Inhibition of human pancreatic cancers; conditions: in particular cancers rich in glucocorticoid receptors
# [3] = system: Kirsten murine sarcoma virus transformed human skin fibroblasts; conditions: cited from earlier work
# [4] = system: corneal neovascularization; test: Corneal angiogenesis inhibition, subcutaneous injection once/day; format: in vivo, rat
# Procedure: (§1) The ability of etianic acids to inhibit angiogenesis was evaluated in vivo in rats. Each animal had its corneas cauterized with silver nitrate/potassium nitrate. The cauterization causes the normally avascular cornea to undergo neovascularization (anglogenesis). This animal model, refined by Proia et al., Lab. Invest. 58: 473-479 (1988) and now a well-established assay, quantifies corneal neovascularization by computerized image analysis. […] Ophthalmol. Vis. Science 30: 1588-1593 (1989), and can provide a more definitive evaluation of angiostatic activity than models using the chorioallantoic membrane in the chick egg or the rabbit eye model. See Proia et al., Exp. Eye Res. (in press--to be published in Vol. 57 in 1993).
# (§2) Female rats were obtained from Zivic-Miller Laboratories, Zelienople, Pa. There were 6-8 rats included in each treatment group. Neovascularization was induced by cauterizing both corneas of each anesthetized rat; this was performed by applying the tip of a silver nitrate/potassium nitrate to the cornea for 5-7.5 seconds.
# (§3) After four days of treatment, the animals were euthanized by rapid asphyxiation in a carbon dioxide chamber. The vasculature was perfused with a mixture of 10 percent india ink/11 percent gelatin/lactated Ringer's solution. Corneal tissue was dissected and prepared as flat mounts. During dissection, the corneas were examined with a dissecting microscope, and the degree of neovascularization was graded numerically from 1+ to 4+. After dehydration with alcohols, cleaning with xylene, mounting, and drying, the area of each cornea and the length of blood vessels were determined by computerized image analysis.
# The ability of compounds 2013, 518, and 513 to inhibit corneal angiogenesis when injected subcutaneously once/day to was assessed on rats prepared as described in Example 8. Dexamethasone was used as a positive control.
# [5] = system: thymus; test: Thymus weight of rats treated topically in the corneal angiogenesis study; format: in vivo, rat
# Procedure: as §1, §2
# (§4) Steroids were formulated in vehicle containing 10 percent Tween 20 (polyoxyethylene sorbitan monolaurate) dissolved in 0.9 percent saline with percent (by volume) 0.2M tris (hydroxymethyl)aminomethane, pH 7.4. The steroids dissolved readily when the pH was adjusted to 7.0-8.0 with NaOH or KOH. All steroids were tested at a concentration of 1 percent; additionally, some formulations were also tested at 0.01 percent, 0.1 percent, and 2.5 percent. Three 10 μl drops of each concentration of steroid were applied topically to each cauterized cornea four times per day (8:00 a.m., noon, 4:00 p.m., and 8:00 p.m.).
# as §3
# [6] = system: corneal neovascularization; test: Inhibition of corneal neovascularization in cauterized rat corneas, topical application four times per day for four days; format: in vivo; conditions: for Neovascularization (percent of the corneal area occupied by blood vessels): mean ± S.D.; for Percent Inhibition of neovascularization: versus vehicle
# Procedure: as §1, §2
# The corneal tissues were treated with steroid formulations.
# as §4, with “The steroids dissolved readily when the pH was adjusted to 7.0-8.0 with NaOH or KOH.” left out
# as §3
# Statistical evaluation of inhibition of corneal neovascularization by each concentration of drug was evaluated using Mann Whitney U Tests (one-tailed; P<0.05=significant difference). […] In all cases, however, image analysis was used to quantitatively confirm visual observations.
# [7] = system: rat corneas; test: Histological study of steroid-treated cauterized corneal tissue; format: in vivo; conditions: 1 percent topical QID
# Procedure: A histological study was performed in which either vehicle or 1 percent compound 2013 (17β-carboxylic acid derivative of prednisolone) was applied topically (QID) to rat corneas cauterized as described in Example 23. Five rats were included in each experimental group. The rats were killed either one or four days after treatment.
# Histological sections were prepared through the cautery site.
# [8] = Body weight of rats treated topically in the corneal angiogenesis study; format: in vivo, rat; conditions: topical, all concentrations
# Procedure: as §1, §2, §4
# as §3, with “Corneal tissue was dissected and prepared as flat mounts. During dissection, the corneas were examined with a dissecting microscope, and the degree of neovascularization was graded numerically from 1+ to 4+.” left out
# [9] = system: Dunning R3327 (PAP) prostatic adenocarcinoma; conditions: in vitro; cited from earlier work
# [10] = system: MCF-7 breast cancer; conditions: in vitro; cited from earlier work
structure (smiles),measurement,setting,value
"C[C@]12C=C(C(=O)O)C(=O)C=C1CC[C@@H]1[C@@H]2[C@@H](O)C[C@@]2(C)[C@H]1CC[C@]2(C)O [2-carboxyl-11β,17β-dihydroxy-17α-methyl-1,4-androstadien-3-one]",Glucocorticoid activity (in words),[1],anti-glucocorticoid
same,Inhibition of human pancreatic cancers (in words),[2],"inhibits certain human pancreatic cancers, and in particular inhibits those cancers rich in glucocorticoid receptors"
"C[C@]12C=CC(=O)C=C1CC[C@@H]1[C@@H]2[C@@H](O)C[C@@]2(C)[C@H]1CC[C@]2(O)C(=O)O [Compound 2013, 17β-carboxyl-11β,17α-dihydroxy-3-oxo-1,4-androstadiene]",Neodifferentiation into adipose cells (in words),[3],promotes neodifferentiation
same,Neovasc.,[4]; 10 mg/kg/day subcutaneous,21.5 ± 6.3%
same,Neovasc.,[4]; 25 mg/kg/day subcutaneous,17.1 ± 3.0%
same,Change in thymus weight (in words),[5]; topical 0.1 percent,no significant effect on thymus weight
same,Decrease of thymus weight from control,[5]; topical 1 percent,27%
same,Thymus weight,"[5]; topical 1 percent, four days",0.207±0.035 gm
same,Neovascularization (percent of the corneal area occupied by blood vessels),"[6]; Experiment A, topical 0.01%",26.2 ± 6.3%
same,Percent Inhibition of neovascularization,"[6]; Experiment A, topical 0.01%",+21%
same,Neovascularization (percent of the corneal area occupied by blood vessels),"[6]; Experiment A, topical 0.1%",13.9 ± 7.3%
same,Percent Inhibition of neovascularization,"[6]; Experiment A, topical 0.1%",36%
same,Neovascularization (percent of the corneal area occupied by blood vessels),"[6]; Experiment A, topical 1.0%",9.8 ± 2.0%
same,Percent Inhibition of neovascularization,"[6]; Experiment A, topical 1.0%",55%
same,Neovascularization (percent of the corneal area occupied by blood vessels),"[6]; Experiment B, topical 0.01%",18.3 ± 4.0%
same,Percent Inhibition of neovascularization,"[6]; Experiment B, topical 0.01%",22%
same,Neovascularization (percent of the corneal area occupied by blood vessels),"[6]; Experiment B, topical 0.1%",14.6 ± 6.8%
same,Percent Inhibition of neovascularization,"[6]; Experiment B, topical 0.1%",38%
same,Neovascularization (percent of the corneal area occupied by blood vessels),"[6]; Experiment B, topical 1.0%",16.0 ± 3.6%
same,Percent Inhibition of neovascularization,"[6]; Experiment B, topical 1.0%",32%
same,"Inhibition of corneal vascularization (significance, in words)",[6]; applied topically,did cause significant inhibition of corneal vascularization
same,Degree of leukocytic infiltrate versus vehicle (in words),[7]; 24 or 96 hours post-cautery,no difference in the degree of leukocytic infiltrate
same,Corneal reepithelialization and neovascularization (in words),[7]; 24 hours after cautery,Neither corneal reepithelialization nor neovascularization were observed
same,Corneal reepithelialization (in words),[7]; 96 hours post-cautery,all corneas were reepithelialized
same,Neovascularization (histological),[7]; 96 hours post-cautery,0.6±0.6
same,Neovascularization versus vehicle (in words),[7]; 96 hours post-cautery,marked reduction in neovascularization
same,Effect on body weight (in words),[8],Body weight was unaffected by treatment with any concentration
same,Growth inhibition of Dunning R3327 (PAP) (in words),[9],inhibits growth of the Dunning R3327 (PAP) prostatic adenocarcinoma
"C[C@]12C=CC(=O)C=C1CC[C@@H]1[C@@H]2[C@@H](O)C[C@@]2(C)[C@H]1CC[C@]2(O)C(=O)NCc1ccccc1 [benzylamide derivative, prednienic acid benzylamide]",Inhibition of MCF-7 breast cancer (in words),[10],inhibits MCF-7 breast cancer
